Reference: US4419447A, “Fermentation process for producing demycinosyltylosin” (Eli Lilly and Company, priority 1981, dated 1983)
In brackets after ≈: the same amount, converted by molar mass. Counter-ions that a name gives are not always drawn. Like-named read-outs stand apart in the source and are kept apart here.

Key:
[1] = test system: Streptomyces fradiae NRRL 12170; test: Antibiotic sensitivity of S. fradiae NRRL 12170 (sensitivity discs on seeded agar plates); assay type: cell-based
Source text: (§1) ^a Determined by using sensitivity discs padded onto seededagar

[2] = test system: Streptomyces fradiae E2724.1; test: Antibiotic sensitivity of S. fradiae E2724.1 (sensitivity discs on seeded agar plates); assay type: cell-based
Source text: as §1

[3] = test system: Streptococcus pyogenes C203; test: Experimental infection in mice; assay type: in vivo; conditions: two doses
[4] = test system: Streptococcus pneumoniae Park I; test: Experimental infection in mice; assay type: in vivo
Mycoplasma gallisepticum [5] = test: Treatment of induced Mycoplasma gallisepticum infection in chicks with DMT tartrate; assay type: in vivo; conditions: infected control 231
Protocol: (§2) Activity against Mycoplasma species is an especially useful aspect of the DMT compounds. Tables 10 and 11 summarize experiments using DMT and DMT tartrate for the treatment of induced Mycoplasma gallisepticum infections in chickens. The compounds were administered in the drinking water (at 1 and 2 grams per gallon for 1 to 3 days) or by injection at 15 or 30 mg/kg of body weight.

[6] = Acute toxicity of DMT in mice; conditions: mouse, in vivo
Source text: In these studies, 4- to 5-week-old Harlan ICR mice were used. […]

physchem = assay type: physicochemical; conditions: 66% aqueous dimethylformamide
[7] = assay type: physicochemical
Source text: DMT base is soluble in water and in most polar organic solvents, such as acetone, methanol, ethanol, chloroform, dimethylformamide and dimethyl sulfoxide. DMT acid addition salts are more soluble in water than is DMT base.

[8] = test system: Staphylococcus aureus 3055; test: Experimental infection in mice; assay type: in vivo; conditions: two doses
[9] = test system: gram-positive microorganisms and Mycoplasma species; test: Inhibition of growth of pathogenic bacteria (general statement); assay type: cell-based
Source text: (§3) Table 8 summarizes the minimal inhibitory concentrations (MIC), as measured by standard agar-dilution assays, at which DMT (free base) inhibits certain bacteria.

Mycoplasma gallisepticum [10] = test: Treatment of induced Mycoplasma gallisepticum infection in chicks with DMT base; assay type: in vivo; conditions: infected control 304
Protocol: as §2

Mycoplasma hyopneumoniae = test: In vitro activity, standard agar-dilution assay; assay type: cell-based; conditions: Mesomycoplasma hyopneumoniae
Source text: as §3

Pasteurella hemolytica = test: In vitro activity, standard agar-dilution assay; assay type: cell-based
Source text: as §3

Pasteurella multocida = test: In vitro activity, standard agar-dilution assay; assay type: cell-based
Source text: as §3

[11] = test system: Staphylococcus aureus 3055; test: In vitro activity, standard agar-dilution assay; assay type: cell-based
Source text: as §3

[12] = test system: Staphylococcus aureus 209P; test: In vitro activity, standard agar-dilution assay; assay type: cell-based
Source text: as §3

[13] = test system: Streptococcus sp. (Group D) 282; test: In vitro activity, standard agar-dilution assay; assay type: cell-based
Source text: as §3

[14] = test system: Streptococcus pyogenes C203; test: In vitro activity, standard agar-dilution assay; assay type: cell-based
Source text: as §3

Mycoplasma hyorhinis = test: In vitro activity, standard agar-dilution assay; assay type: cell-based
Source text: as §3

[15] = test system: Streptococcus pneumoniae Park I; test: In vitro activity, standard agar-dilution assay; assay type: cell-based
Source text: as §3

Mycoplasma gallisepticum [16] = test: In vitro activity, standard agar-dilution assay; assay type: cell-based; conditions: Mycoplasmoides gallisepticum
Source text: as §3

[17] = 1.0 g/gal, 1-3 days, drinking water
[18] = 2.0 g/gal, 1-3 days, drinking water

In the case of `O=C(Cc1cccs1)N[C@@H]1C(=O)N2C(C(=O)[O-])=C(C[n+]3ccccc3)CS[C@H]12` [Cephaloridine], the “Antibiotic Sensitivity” value ([1]; disc conc. 30 μg) is reported as “+” and the “Antibiotic Sensitivity” value ([2]; disc conc. 30 μg) is reported as “+”.
In the case of `O=C(N[C@H](CO)[C@H](O)c1ccc([N+](=O)[O-])cc1)C(Cl)Cl` [Chloramphenicol], the “Antibiotic Sensitivity” value ([1]; disc conc. 30 μg) is reported as “+” and the “Antibiotic Sensitivity” value ([2]; disc conc. 30 μg) is reported as “+”.
Compound `CCC1OC(=O)CC(O)C(C)C(OC2OC(C)C(OC3CC(C)(O)C(O)C(C)O3)C(N(C)C)C2O)C(CC=O)CC(C)C(=O)C=CC(C)=CC1CO` (stereo not shown) [DMT Tartrate] has an ED50 ([3]; oral, challenge 11.3 × LD50) of 172 mg/kg × 2, an ED50 ([3]; subcutaneous, challenge 13 × LD50) of 2.3 mg/kg × 2 and an ED50 ([4]; po) of 100 mg/kg. For the same compound, the ED50 ([4]; sc) was no more than 9.9 mg/kg, the “Avg. Wt.” value (Mycoplasma gallisepticum [5]; 30 mg/kg, injection) was 330 g and the “Avg. Wt.” value (Mycoplasma gallisepticum [5]; [17]) was 354 g. For the same compound, the “Avg. Wt.” value (Mycoplasma gallisepticum [5]; [18]) was 458 g.
Work on `CCC1OC(=O)CC(O)C(C)C(OC2OC(C)C(OC3CC(C)(O)C(O)C(C)O3)C(N(C)C)C2O)C(CC=O)CC(C)C(=O)C=CC(C)=CC1CO` (stereo not shown) [DMT, 23-demycinosyltylosin] yielded an LD50 ([6]; ip, females) of 325 mg/kg, an LD50 ([6]; ip, males) of 721 mg/kg and an LD50 ([6]; iv, females) of 186 mg/kg. It also gave an LD50 ([6]; iv, males) of 100 mg/kg, an LD50 ([6]; po, females) greater than 5000 mg/kg and an LD50 ([6]; sc, females) of 5450 mg/kg. The pKa (physchem) was roughly 7.25, the “solubility in most polar organic solvents” value [7] was “soluble” and the solubility in water [7] was “soluble”. The ED50 ([3]; Streptococcus pyogenes, C203, po, oral, challenge 11.3 × LD50, read-out: ED50) was 218 mg/kg, the ED50 ([3]; Streptococcus pyogenes, C203, sc, subcutaneous, challenge 13 × LD50, read-out: ED50) was 2.2 mg/kg and the ED50 ([8]; Staphylococcus aureus, 3055, sc, subcutaneous, challenge 21 × LD50) was 2.7 mg/kg. For the same compound, the ED50 ([8]; Staphylococcus aureus, 3055, oral, challenge 26 × LD50) was 64 mg/kg, the ED50 ([4]; po, two doses, challenge 2.7 × LD50) was 66 mg/kg and the ED50 ([4]; sc, subcutaneous, two doses, challenge 3 × LD50) was 15.7 mg/kg. For the same compound, the “inhibition of growth of pathogenic organisms” value [9] was “especially active against gram-positive microorganisms and Mycoplasma species”, the “Avg. Wt.” value (Mycoplasma gallisepticum [10]; 15 mg/kg, injection) was 453 g and the “Avg. Wt.” value (Mycoplasma gallisepticum [10]; [17]) was 392 g. The “Avg. Wt.” value (Mycoplasma gallisepticum [10]; [18]) was 397 g, the MIC (Mycoplasma hyopneumoniae) was 0.195 µg/mL (≈ 0.263 µM) and the MIC (Pasteurella hemolytica) was 12.5 µg/mL (≈ 16.8 µM). The MIC (Pasteurella multocida) was 3.12 µg/mL (≈ 4.21 µM), the MIC [11] was 1 µg/mL (≈ 1.35 µM) and the MIC [12] was 0.25 µg/mL (≈ 0.337 µM). For the same compound, the MIC [13] was 0.5 µg/mL (≈ 0.674 µM), the MIC [14] was 0.25 µg/mL (≈ 0.337 µM) and the MIC (Mycoplasma hyorhinis) was 0.78 µg/mL (≈ 1.05 µM). For the same compound, the MIC [15] was 0.13 µg/mL (≈ 0.175 µM) and the MIC (Mycoplasma gallisepticum [16]) was 0.097 µg/mL (≈ 0.131 µM).
In the case of `CCC[C@@H]1C[C@@H](C(=O)N[C@@H]([C@H]2O[C@H](SC)[C@H](O)[C@@H](O)[C@H]2O)[C@@H](C)O)N(C)C1` [Lincomycin], the “Antibiotic Sensitivity” value ([1]; disc conc. 2 μg) is reported as “-” and the “Antibiotic Sensitivity” value ([2]; disc conc. 2 μg) is reported as “-”.
With `[H]/N=C(/N)N[C@H]1[C@H](O)[C@@H](O)[C@H](O[C@@H]2O[C@@H](C)[C@](O)(C=O)[C@H]2O[C@@H]2O[C@@H](CO)[C@H](O)[C@@H](O)[C@@H]2NC)[C@@H](N/C(N)=N\[H])[C@@H]1O` [Streptomycin] the “Antibiotic Sensitivity” value ([1]; disc conc. 10 μg) was “+” and the “Antibiotic Sensitivity” value ([2]; disc conc. 10 μg) was “+”.
In the case of `CN(C)[C@@H]1C(O)=C(C(N)=O)C(=O)[C@@]2(O)C(O)=C3C(=O)c4c(O)cccc4[C@@](C)(O)[C@H]3C[C@@H]12` [Tetracycline], the “Antibiotic Sensitivity” value ([1]; disc conc. 30 μg) is reported as “+” and the “Antibiotic Sensitivity” value ([2]; disc conc. 30 μg) is reported as “+”.
With `CN[C@H](CC(C)C)C(=O)N[C@H]1C(=O)N[C@@H](CC(N)=O)C(=O)N[C@H]2C(=O)N[C@H]3C(=O)N[C@H](C(=O)N[C@H](C(=O)O)c4cc(O)cc(O)c4-c4cc3ccc4O)[C@H](O)c3ccc(c(Cl)c3)Oc3cc2cc(c3O[C@@H]2O[C@H](CO)[C@@H](O)[C@H](O)[C@H]2O[C@H]2C[C@](C)(N)[C@H](O)[C@H](C)O2)Oc2ccc(cc2Cl)[C@H]1O` [Vancomycin] the “Antibiotic Sensitivity” value ([1]; disc conc. 30 μg) was “+” and the “Antibiotic Sensitivity” value ([2]; disc conc. 30 μg) was “+”.
For `CCC1OC(=O)CC(O)C(C)C(OC2OC(C)C(OC3CC(C)(O)C(O)C(C)O3)C(N(C)C)C2O)C(CCO)CC(C)C(=O)C=CC(C)=CC1CO` (stereo not shown) [dihydro-DMT, 20-dihydro-23-demycinosyltylosin], the “inhibition of growth of pathogenic organisms” value [9] was “especially active against gram-positive microorganisms and Mycoplasma species”.
